System: histamine H2 -receptors
Assay: inhibition of histamine-stimulated secretion of gastric acid from the lumen-perfused stomachs of rats anaesthetised with urethane
Assay type: in vivo
Details: i.v., lumen-perfused stomach of urethane-anaesthetised rats

N=C(N)Nc1nc(CSCCNC2=C([N+](=O)[O-])CCCN2)cs1 [Example 1, 2-[2-(2-Guanidino-4-thiazolylmethylthio)ethylamino-]-3-nitro-1,4,5,6-tetrahydropyridine]
dose causing 50% inhibition of maximal acid secretion: less than 0.1 micromole kh^-1

Reference: patent US4307104A, “Guanidine compounds” (Smith Kline & French Laboratories Limited, priority 1979, dated 1981)
